Measured values from ChEMBL document CHEMBL3885861, “Open TG-GATES”.

Organism: Rattus norvegicus
Test: Open TG-GATES - Regimen: Single
Assay type: toxicity, organism-based, Sprague-Dawley
Parameters: regimen Single, gender Male, age 6 weeks
Conditions: in vivo, po, 0 mg/kg, route gavage, dose level Control; for APTT / Bas / Eos / Fbg / Hb / Ht / Lym / MCH / MCHC / MCV / Mono / Neu / PT / Plat / RBC / Ret / WBC: tissue Blood; for KIDNEY_L / KIDNEY_R / KIDNEY_TOTAL: tissue Kidney; for LIVER: tissue Liver; for A/G / ALP / ALT / AST / BUN / CRE / Ca / Cl / DBIL / GLC / IP / K / LDH / Na / PL / RALB / TBIL / TC / TG / TP / gamma-GTP: tissue Plasma

Compound: ClC(Cl)(Cl)Cl [CARBON TETRACHLORIDE]
- TERMINAL_BW (3 h): 204.7 g
- APTT (3 h): 16.7 s
- Bas (3 h): 0%
- Eos (3 h): 1%
- Fbg (3 h): 245 mg/dL
- Hb (3 h): 13 g/dL
- Ht (3 h): 37.3%
- Lym (3 h): 73.8%
- MCH (3 h): 21.7 pg
- MCHC (3 h): 34.8%
- MCV (3 h): 62.3 fL
- Mono (3 h): 3.6%
- Neu (3 h): 21.6%
- PT (3 h): 12 s
- Plat (3 h): 132.6 x10_4/uL
- RBC (3 h): 599 x10_4/ul
- Ret (3 h): 8.6%
- WBC (3 h): 103.4 x10_2/uL
- KIDNEY_L (3 h): 0.9 g
- KIDNEY_R (3 h): 0.9 g
- KIDNEY_TOTAL (3 h): 1.8 g
- LIVER (3 h): 10 g
- A/G (3 h): 1.6
- ALP (3 h): 947 IU/L
- ALT (3 h): 37.2 IU/L
- AST (3 h): 66.6 IU/L
- BUN (3 h): 13.2 mg/dL
- CRE (3 h): 0.4 mg/dL
- Ca (3 h): 11 mg/dL
- Cl (3 h): 104.2 meq/L
- DBIL (3 h): 0.3 mg/dL
- GLC (3 h): 207 mg/dL
- IP (3 h): 9 mg/dL
- K (3 h): 3.9 meq/L
- LDH (3 h): 209 IU/L
- Na (3 h): 139.6 meq/L
- PL (3 h): 179.8 mg/dL
- RALB (3 h): 3.4 g/dL
- TBIL (3 h): 0.3 mg/dL
- TC (3 h): 87.2 mg/dL
- TG (3 h): 159.6 mg/dL
- TP (3 h): 5.6 g/dL
- gamma-GTP (3 h): 0.6 IU/L
- TERMINAL_BW (6 h): 204.3 g
- APTT (6 h): 17 s
- Bas (6 h): 0%
- Eos (6 h): 0.8%
- Fbg (6 h): 230.8 mg/dL
- Hb (6 h): 13 g/dL
- Ht (6 h): 37.6%
- Lym (6 h): 69%
- MCH (6 h): 22 pg
- MCHC (6 h): 34.6%
- MCV (6 h): 63.4 fL
- Mono (6 h): 3.4%
- Neu (6 h): 26.6%
- PT (6 h): 12.1 s
- Plat (6 h): 140.4 x10_4/uL
- RBC (6 h): 593.6 x10_4/ul
- Ret (6 h): 8.9%
- WBC (6 h): 98.9 x10_2/uL
- KIDNEY_L (6 h): 0.9 g
- KIDNEY_R (6 h): 0.9 g
- KIDNEY_TOTAL (6 h): 1.8 g
- LIVER (6 h): 9 g
- A/G (6 h): 1.5
- ALP (6 h): 1166.6 IU/L
- ALT (6 h): 31.4 IU/L
- AST (6 h): 62.8 IU/L
- BUN (6 h): 9.6 mg/dL
- CRE (6 h): 0.4 mg/dL
- Ca (6 h): 10.7 mg/dL
- Cl (6 h): 104 meq/L
- DBIL (6 h): 0.094 mg/dL
- GLC (6 h): 196.8 mg/dL
- IP (6 h): 9.8 mg/dL
- K (6 h): 4.1 meq/L
- LDH (6 h): 189.2 IU/L
- Na (6 h): 139.8 meq/L
- PL (6 h): 161.4 mg/dL
- RALB (6 h): 3.3 g/dL
- TBIL (6 h): 0.2 mg/dL
- TC (6 h): 89.4 mg/dL
- TG (6 h): 61 mg/dL
- TP (6 h): 5.4 g/dL
- gamma-GTP (6 h): 1 IU/L
- TERMINAL_BW (9 h): 201.8 g
- APTT (9 h): 16.1 s
- Bas (9 h): 0%
- Eos (9 h): 0.8%
- Fbg (9 h): 222.4 mg/dL
- Hb (9 h): 12.6 g/dL
- Ht (9 h): 36.6%
- Lym (9 h): 76.6%
- MCH (9 h): 22.2 pg
- MCHC (9 h): 34.6%
- MCV (9 h): 64.2 fL
- Mono (9 h): 2.2%
- Neu (9 h): 20%
- PT (9 h): 12.2 s
- Plat (9 h): 131.9 x10_4/uL
- RBC (9 h): 570 x10_4/ul
- Ret (9 h): 9.7%
- WBC (9 h): 82.1 x10_2/uL
- KIDNEY_L (9 h): 0.9 g
- KIDNEY_R (9 h): 0.9 g
- KIDNEY_TOTAL (9 h): 1.8 g
- LIVER (9 h): 8.6 g
- A/G (9 h): 1.4
- ALP (9 h): 961.6 IU/L
- ALT (9 h): 30 IU/L
- AST (9 h): 62.6 IU/L
- BUN (9 h): 11.2 mg/dL
- CRE (9 h): 0.4 mg/dL
- Ca (9 h): 10.3 mg/dL
- Cl (9 h): 102.4 meq/L
- DBIL (9 h): 0.066 mg/dL
- GLC (9 h): 207.2 mg/dL
- IP (9 h): 10.7 mg/dL
- K (9 h): 3.7 meq/L
- LDH (9 h): 163 IU/L
- Na (9 h): 139.2 meq/L
- PL (9 h): 129.8 mg/dL
- RALB (9 h): 3.1 g/dL
- TBIL (9 h): 0.1 mg/dL
- TC (9 h): 69.8 mg/dL
- TG (9 h): 35.6 mg/dL
- TP (9 h): 5.4 g/dL
- gamma-GTP (9 h): 1.2 IU/L
- TERMINAL_BW (24 h): 215.9 g
- APTT (24 h): 18.1 s
- Bas (24 h): 0.2%
- Eos (24 h): 1%
- Fbg (24 h): 256.8 mg/dL
- Hb (24 h): 13.7 g/dL
- Ht (24 h): 38.8%
- Lym (24 h): 82%
- MCH (24 h): 22.5 pg
- MCHC (24 h): 35.3%
- MCV (24 h): 63.8 fL
- Mono (24 h): 2.4%
- Neu (24 h): 14.2%
- PT (24 h): 11.8 s
- Plat (24 h): 140.8 x10_4/uL
- RBC (24 h): 607.2 x10_4/ul
- Ret (24 h): 8%
- WBC (24 h): 105.9 x10_2/uL
- KIDNEY_L (24 h): 0.9 g
- KIDNEY_R (24 h): 0.9 g
- KIDNEY_TOTAL (24 h): 1.9 g
- LIVER (24 h): 10.6 g
- A/G (24 h): 1.6
- ALP (24 h): 1231.6 IU/L
- ALT (24 h): 37.2 IU/L
- AST (24 h): 66.6 IU/L
- BUN (24 h): 15 mg/dL
- CRE (24 h): 0.4 mg/dL
- Ca (24 h): 10.9 mg/dL
- Cl (24 h): 103 meq/L
- DBIL (24 h): 0.088 mg/dL
- GLC (24 h): 202.2 mg/dL
- IP (24 h): 7.4 mg/dL
- K (24 h): 3.8 meq/L
- LDH (24 h): 186.2 IU/L
- Na (24 h): 140 meq/L
- PL (24 h): 156.2 mg/dL
- RALB (24 h): 3.5 g/dL
- TBIL (24 h): 0.2 mg/dL
- TC (24 h): 79.2 mg/dL
- TG (24 h): 100 mg/dL
- TP (24 h): 5.7 g/dL
- gamma-GTP (24 h): 1.2 IU/L
